Results published in patent publication US7618816B2, “Metal-binding therapeutic peptides” (Ontherix, Inc., priority 2005, dated 2009).
Values joined by “and” are separate entries in the source; they are usually repeats but may differ in a detail not shown here. Identical values can stand only once. Where a SMILES comes first, the peptide text is derived from it. Where no end group is shown, it is not given here. The star is where a group is joined. Biotin = O=C1N[C@H]2[C@H](CS[C@H]2CCCCC(=O)*)N1

Key:
[1] = tested on: MX-I; experiment: Cytotoxicity of MBD therapeutic peptides; format: cell-based, human; details: relative to equal dose of control MBD peptide, only p < 0.05 shown, 1-4 experiments
Description: (§1) Also, peptides such as NFKB and CSK are of interest, targeting stress-coping mechanisms such as inflammation. The breast cancer lines tested are HS578T, MX-1, MDA-MB231, MDA-MB435 and MCF7. Leukemia cell lines tested for cytotoxicity effects with these MBD-tagged peptides are CCRF-CEM, RPMI-8226 and MOLT-4. Overall, MCF-7 and CCRF-CEM yield the most consistent data and the strongest effect across the board (Table 12). In addition, elevated levels of cytotoxicity are observed when multiple peptides are combined while keeping the overall amount of peptide added constant. Cytotoxicity increases with the number of peptides added per cocktail and is further enhanced by combining peptide cocktail treatment with paclitaxel.

[2] = tested on: MOLT-4; experiment: Cytotoxicity of MBD therapeutic peptides; format: cell-based, human; details: relative to equal dose of control MBD peptide, only p < 0.05 shown, 1-4 experiments
Description: as §1

[3] = tested on: RPMI-8826; experiment: Cytotoxicity of MBD therapeutic peptides; format: cell-based, human; details: relative to equal dose of control MBD peptide, only p < 0.05 shown, 1-4 experiments
Description: as §1

[4] = tested on: MCF-7; experiment: Cytotoxicity of MBD therapeutic peptides; format: cell-based, human; details: relative to equal dose of control MBD peptide, only p < 0.05 shown, 1-4 experiments
Description: as §1

[5] = tested on: MDA-MB231; experiment: Cytotoxicity of MBD therapeutic peptides; format: cell-based, human; details: relative to equal dose of control MBD peptide, only p < 0.05 shown, 1-4 experiments
Description: as §1

[6] = tested on: cancer cells; experiment: Selective cytotoxicity, cancer cells versus normal counterparts; format: cell-based, human
Description: as §1

[7] = tested on: SR; experiment: Cytotoxicity of MBD therapeutic peptides; format: cell-based; details: relative to equal dose of control MBD peptide, only p < 0.05 shown, 1-4 experiments
[8] = tested on: MDA-MB435; experiment: Cytotoxicity of MBD therapeutic peptides; format: cell-based; details: relative to equal dose of control MBD peptide, only p < 0.05 shown, 1-4 experiments
Description: as §1

[9] = tested on: Hs578T; experiment: Cytotoxicity of MBD therapeutic peptides; format: cell-based; details: relative to equal dose of control MBD peptide, only p < 0.05 shown, 1-4 experiments
Description: as §1

[10] = tested on: CCRF-CEM; experiment: Cytotoxicity of MBD therapeutic peptides; format: cell-based, human; details: relative to equal dose of control MBD peptide, only p < 0.05 shown, 1-4 experiments
Description: as §1

Compound | % viability @ 48 hr/25 ug/ml peptide, MX-I [1] | % viability @ 48 hr/25 ug/ml peptide, MOLT-4 [2] | % viability @ 48 hr/25 ug/ml peptide, RPMI-8826 [3] [%] | % viability @ 48 hr/25 ug/ml peptide, MCF-7 [4] | % viability @ 48 hr/25 ug/ml peptide, MDA-MB231 [5] [%] | Cytotoxic effect on cancer cells versus normal counterparts (in words) [6] | % viability @ 48 hr/25 ug/ml peptide, SR [7] | % viability @ 48 hr/25 ug/ml peptide, MDA-MB435 [8] | % viability @ 48 hr/25 ug/ml peptide, Hs578T [9] | % viability @ 48 hr/25 ug/ml peptide, CCRF-CEM [10]
CC(C)C[C@H](NC(=O)[C@H](CC(C)C)NC(=O)[C@H](CCCCN)NC(=O)[C@H](Cc1c[nH]c2ccccc12)NC(=O)[C@@H](NC(=O)[C@H](CC(=O)O)NC(=O)[C@H](CO)NC(=O)[C@H](Cc1ccccc1)NC(=O)[C@@H](NC(=O)[C@H](CCC(=O)O)NC(=O)CCCC[C@@H]1SC[C@@H]2NC(=O)N[C@@H]21)[C@@H](C)O)C(C)C)C(=O)N[C@@H](CCCCN)C(=O)N[C@@H](CCCCN)C(=O)NCC(=O)N[C@@H](Cc1ccccc1)C(=O)N[C@@H](Cc1ccc(O)cc1)C(=O)N[C@@H](CCCCN)C(=O)N[C@@H](CCCCN)C(=O)N[C@@H](CCCCN)C(=O)N[C@@H](CCC(N)=O)C(=O)N[C@@H](CS)C(=O)N[C@@H](CCCNC(=N)N)C(=O)N1CCC[C@H]1C(=O)N[C@@H](CO)C(=O)N[C@@H](CCCCN)C(=O)NCC(=O)N[C@@H](CCCNC(=N)N)C(=O)N[C@@H](CCCCN)C(=O)N[C@@H](CCCNC(=N)N)C(=O)NCC(=O)N[C@@H](Cc1ccccc1)C(=O)N[C@@H](CS)C(=O)N[C@@H](Cc1c[nH]c2ccccc12)C(=O)O [PEP-2] (Biotin-ETFSDVWKLLKKGFYKKKQCRPSKGRKRGFCW-OH) | 6.8 ± 1.5% and 9.0 ± 0.6% | 63.5 ± 7.7% and 57.9 ± 1.3% and 88.2 ± 2.6% | 38.4 ± 4.2 | 19.3 ± 6.3% and 33.5 ± 4.4% and 35.6 ± 5.7% | 40.7 ± 1.8 | strong cytotoxic effect on cancer cells but not their human counterparts | 33.7 ± 16.0% | 18.5 ± 1.0% | 31.1 ± 3.0% and 33.5 ± 2.3% | 
Biotin-KKGFYKKKQCRPSKGRKRGFCWAVQTLLQQMQDKFQTMSDQI (cysteines drawn unpaired) [M9HSBP2] |  | 94.2 ± 17.1% | 81.7 ± 2.9 |  |  |  | 88.9 ± 4.0% and 87.7 ± 6.7% |  |  | 92.6 ± 2.0%
CC(C)C[C@H](NC(=O)[C@H](C)NC(=O)[C@H](C)NC(=O)[C@H](Cc1c[nH]c2ccccc12)NC(=O)[C@H](CS)NC(=O)[C@H](Cc1ccccc1)NC(=O)CNC(=O)[C@H](CCCNC(=N)N)NC(=O)[C@H](CCCCN)NC(=O)[C@H](CCCNC(=N)N)NC(=O)CNC(=O)[C@H](CCCCN)NC(=O)[C@H](CO)NC(=O)[C@@H]1CCCN1C(=O)[C@H](CCCNC(=N)N)NC(=O)[C@H](CS)NC(=O)[C@H](CCC(N)=O)NC(=O)[C@H](CCCCN)NC(=O)[C@H](CCCCN)NC(=O)[C@H](CCCCN)NC(=O)[C@H](Cc1ccc(O)cc1)NC(=O)[C@H](Cc1ccccc1)NC(=O)CNC(=O)[C@H](CCCCN)NC(=O)[C@H](CCCCN)NC(=O)CCCC[C@@H]1SC[C@@H]2NC(=O)N[C@@H]21)C(=O)N[C@@H](CC(=O)O)C(=O)N[C@@H](Cc1c[nH]c2ccccc12)C(=O)N[C@@H](CO)C(=O)N[C@@H](Cc1c[nH]c2ccccc12)C(=O)N[C@@H](CC(C)C)C(=O)N[C@@H](CCC(N)=O)C(=O)N[C@H](C(=O)O)[C@@H](C)O [NEMO] (Biotin-KKGFYKKKQCRPSKGRKRGFCWAALDWSWLQT-OH) | 59.1 ± 3.2% |  |  | 77.0 ± 46.7% | 79.0 ± 0.8 |  | 56.9 ± 6.2% | 67.4 ± 21.1% and 90.2 ± 3.6% | 81.3 ± 3.0% | 
CC(C)[C@H](NC(=O)[C@H](C)NC(=O)[C@H](Cc1c[nH]c2ccccc12)NC(=O)[C@H](CS)NC(=O)[C@H](Cc1ccccc1)NC(=O)CNC(=O)[C@H](CCCNC(=N)N)NC(=O)[C@H](CCCCN)NC(=O)[C@H](CCCNC(=N)N)NC(=O)CNC(=O)[C@H](CCCCN)NC(=O)[C@H](CO)NC(=O)[C@@H]1CCCN1C(=O)[C@H](CCCNC(=N)N)NC(=O)[C@H](CS)NC(=O)[C@H](CCC(N)=O)NC(=O)[C@H](CCCCN)NC(=O)[C@H](CCCCN)NC(=O)[C@H](CCCCN)NC(=O)[C@H](Cc1ccc(O)cc1)NC(=O)[C@H](Cc1ccccc1)NC(=O)CNC(=O)[C@H](CCCCN)NC(=O)[C@H](CCCCN)NC(=O)CCCC[C@@H]1SC[C@@H]2NC(=O)N[C@@H]21)C(=O)N[C@@H](C)C(=O)N[C@@H](CCC(=O)O)C(=O)N[C@@H](Cc1ccc(O)cc1)C(=O)N[C@@H](C)C(=O)N[C@@H](CCCNC(=N)N)C(=O)N[C@H](C(=O)N[C@@H](CCC(N)=O)C(=O)N[C@@H](CCCCN)C(=O)N[C@@H](CCCNC(=N)N)C(=O)N[C@@H](CCCCN)C(=O)O)C(C)C [CSK] (Biotin-KKGFYKKKQCRPSKGRKRGFCWAVAEYARVQKRK-OH) |  | 81.0 ± 7.1% and 54.8 ± 9.7% |  | 21.1 ± 4.1% and 41.3 ± 5.8% |  |  |  |  | 50.2 ± 1.6% and 76.3 ± 0.6% | 75.1 ± 4.5% and 85.5 ± 2.3%
CSCC[C@H](NC(=O)[C@H](CC(C)C)NC(=O)[C@H](CCCCN)NC(=O)[C@H](CCC(N)=O)NC(=O)[C@H](CCCNC(=N)N)NC(=O)[C@H](CCCCN)NC(=O)[C@H](CCCNC(=N)N)NC(=O)[C@H](CCC(N)=O)NC(=O)[C@@H](NC(=O)[C@@H]1CCCN1C(=O)[C@H](C)NC(=O)[C@H](Cc1c[nH]c2ccccc12)NC(=O)[C@H](CS)NC(=O)[C@H](Cc1ccccc1)NC(=O)CNC(=O)[C@H](CCCNC(=N)N)NC(=O)[C@H](CCCCN)NC(=O)[C@H](CCCNC(=N)N)NC(=O)CNC(=O)[C@H](CCCCN)NC(=O)[C@H](CO)NC(=O)[C@@H]1CCCN1C(=O)[C@H](CCCNC(=N)N)NC(=O)[C@H](CS)NC(=O)[C@H](CCC(N)=O)NC(=O)[C@H](CCCCN)NC(=O)[C@H](CCCCN)NC(=O)[C@H](CCCCN)NC(=O)[C@H](Cc1ccc(O)cc1)NC(=O)[C@H](Cc1ccccc1)NC(=O)CNC(=O)[C@H](CCCCN)NC(=O)[C@H](CCCCN)NC(=O)CCCC[C@@H]1SC[C@@H]2NC(=O)N[C@@H]21)C(C)C)C(=O)N1CCC[C@H]1C(=O)O [NFKB] (Biotin-KKGFYKKKQCRPSKGRKRGFCWAPVQRKRQKLMP-OH) | 74.1 ± 6.1% | 35.9 ± 6.8% and 22.5 ± 3.5% | 64.6 ± 14.3 | 32.8 ± 17.7% | 91.6 ± 6.1 |  |  | 18.0 ± 1.6% and 29.6 ± 2.6% | 36.3 ± 5.6% and 30.6 ± 2.7% | 47.4 ± 13.9%
